Square brackets hold non-standard residues; d marks the D form. Peptide text beside a SMILES is read from it. Nle = CCCC[C@H](N)C(=O)O A value given as a limit tells only on which side of the number the result lay.

The target in one assay is T1, WHSC1 941–1240 (Homo sapiens, UniProt O96028).
T1 construct: GST-tagged WHSC1 941–1240 (#51026); GST; purchased BPS Bioscience 51026
T1 sequence (O96028 941-1240): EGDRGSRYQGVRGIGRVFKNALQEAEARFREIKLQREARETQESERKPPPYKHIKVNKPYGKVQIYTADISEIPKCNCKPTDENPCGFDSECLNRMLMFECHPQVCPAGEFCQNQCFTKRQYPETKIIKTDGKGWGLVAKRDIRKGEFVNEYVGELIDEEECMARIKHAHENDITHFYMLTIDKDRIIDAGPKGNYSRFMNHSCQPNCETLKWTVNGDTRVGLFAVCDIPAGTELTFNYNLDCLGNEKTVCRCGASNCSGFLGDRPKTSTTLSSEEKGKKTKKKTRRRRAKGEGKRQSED
The experiment in a line: WHSC1 941–1240 radiometric biochemical assay (3H methyl transfer from SAM to biotinylated H4 peptide). Conditions: for IC50: radiometric, 10 nM enzyme, 1 μM total SAM, 0.5 μM H4 peptide, 30 min pre-incubation, 120 min, 25°C, pH 8.0, three independent replicates. The procedure:
(§1) An optimized 1× assay buffer containing 20 mM Tris-HCl (pH 8.0), 1 mM DTT, 0.005% Tween-20, and 0.01% bovine skin gelatin was utilized. […] The reaction was quenched after 120 minutes by adding excess (1 mM final concentration) unlabeled SAM. Quenched reactions were transferred onto streptavidin coated Flashplates (PerkinElmer), incubated for 2 hours, washed 1x with 0.1% Tween 20, and read on a Topcount instrument (PerkinElmer).
(§2) The reaction was initiated by adding 10 μL substrate mix containing peptide and SAM. Concentration–response curves in units of percent inhibition were plotted as a function of inhibitor concentration and fitted in GraphPad Prism to determine the IC50 values using a four-parameter logistic equation.

A further assay addresses T2, WHSC1L1 1054–1285 (Homo sapiens, UniProt Q9BZ95).
T2 construct: A WHSC1L1 construct containing amino acids 1054–1285; His-TEV (N, cleaved yes); made in house; host or cells: E. coli
T2 sequence (Q9BZ95 1054-1285): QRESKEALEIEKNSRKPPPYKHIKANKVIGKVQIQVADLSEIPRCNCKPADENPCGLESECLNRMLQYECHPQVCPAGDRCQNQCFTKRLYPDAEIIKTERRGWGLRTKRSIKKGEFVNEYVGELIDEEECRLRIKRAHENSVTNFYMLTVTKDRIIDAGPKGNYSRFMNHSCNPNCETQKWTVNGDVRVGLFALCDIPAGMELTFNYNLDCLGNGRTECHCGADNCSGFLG
The experiment in a line: WHSC1L1 1054–1285 radiometric biochemical assay. Conditions: 40 nM enzyme, 6 μM total SAM, 0.8 μM peptide, 30 min pre-incubation, three independent replicates. The procedure: as §1, §2

A further assay addresses EZH2 (Homo sapiens, UniProt Q15910). The experiment in a line: HMT panel biochemical assay, EZH2. Conditions: HMT selectivity panel.
Another assay deals with EZH1 (Homo sapiens, UniProt Q92800). Briefly: HMT panel biochemical assay, EZH1. Conditions: HMT selectivity panel.
A further assay concerns the target SETDB1 (Homo sapiens, UniProt Q15047). The experiment in a line: HMT panel biochemical assay, SETDB1. Conditions: HMT selectivity panel.
In a further assay the target is SMYD2 (Homo sapiens, UniProt Q9NRG4). Briefly: HMT panel biochemical assay, SMYD2. Conditions: HMT selectivity panel.
Assay [1] has as its target T3, Avi-tagged WHSC1 941–1240 (Homo sapiens, UniProt O96028).
T3 construct: purchased BPS Bioscience 111207
T3 sequence (O96028 941-1240 limits assumed): T1 sequence (O96028 941-1240)
Briefly: SPR binding assay, Avi-tagged WHSC1 941–1240.
Protocol: The SPR binding assay for Avi-tagged WHSC1 941–1240 was performed at 15°C using the Biacore T200 system (GE Healthcare, Marlborough, MA). The running buffer contained 25 mM Tris-HCl pH 8.0, 150 mM NaCl, 5 mM DTT, 0.05% Tween-20, 10 μM ZnCl2, 50 μM SAM, and 2% DMSO. Biotinylated WHSC1 was immobilized on a streptavidin-coated SA chip up to 3700 RU (response units). The reference cell was blocked with PEG-biotin. Peptide inhibitor was injected at a flow rate of 50 μL/min with a 3-fold, 5-point dilution series ending at a 20 μM top concentration. Association and dissociation times were 240 and 2400 seconds, respectively. Double-referenced data were analyzed globally using a 1:1 binding model in BIAevaluation software.
WHSC1 was immobilized on a streptavidin-coated chip and peptide inhibitor was co-injected with SAM utilizing a 3-fold, 5-point dilution series ending at a 20 μM top concentration.
WHSC1 was immobilized on a streptavidin-coated chip and peptide inhibitor was either injected in the absence of cofactor (left panel), co-injected with SAH (middle panel), or co-injected with SFG (right panel) utilizing a 2-fold, 10-point dilution series ending at a 100 μM top concentration.

In a further assay the target is PRMT6 (Homo sapiens, UniProt Q96LA8). Briefly: HMT panel biochemical assay, PRMT6. Conditions: HMT selectivity panel.
In a further assay the target is T4, G9a (Homo sapiens, UniProt Q96KQ7).
T4 sequence (Q96KQ7 1-1210): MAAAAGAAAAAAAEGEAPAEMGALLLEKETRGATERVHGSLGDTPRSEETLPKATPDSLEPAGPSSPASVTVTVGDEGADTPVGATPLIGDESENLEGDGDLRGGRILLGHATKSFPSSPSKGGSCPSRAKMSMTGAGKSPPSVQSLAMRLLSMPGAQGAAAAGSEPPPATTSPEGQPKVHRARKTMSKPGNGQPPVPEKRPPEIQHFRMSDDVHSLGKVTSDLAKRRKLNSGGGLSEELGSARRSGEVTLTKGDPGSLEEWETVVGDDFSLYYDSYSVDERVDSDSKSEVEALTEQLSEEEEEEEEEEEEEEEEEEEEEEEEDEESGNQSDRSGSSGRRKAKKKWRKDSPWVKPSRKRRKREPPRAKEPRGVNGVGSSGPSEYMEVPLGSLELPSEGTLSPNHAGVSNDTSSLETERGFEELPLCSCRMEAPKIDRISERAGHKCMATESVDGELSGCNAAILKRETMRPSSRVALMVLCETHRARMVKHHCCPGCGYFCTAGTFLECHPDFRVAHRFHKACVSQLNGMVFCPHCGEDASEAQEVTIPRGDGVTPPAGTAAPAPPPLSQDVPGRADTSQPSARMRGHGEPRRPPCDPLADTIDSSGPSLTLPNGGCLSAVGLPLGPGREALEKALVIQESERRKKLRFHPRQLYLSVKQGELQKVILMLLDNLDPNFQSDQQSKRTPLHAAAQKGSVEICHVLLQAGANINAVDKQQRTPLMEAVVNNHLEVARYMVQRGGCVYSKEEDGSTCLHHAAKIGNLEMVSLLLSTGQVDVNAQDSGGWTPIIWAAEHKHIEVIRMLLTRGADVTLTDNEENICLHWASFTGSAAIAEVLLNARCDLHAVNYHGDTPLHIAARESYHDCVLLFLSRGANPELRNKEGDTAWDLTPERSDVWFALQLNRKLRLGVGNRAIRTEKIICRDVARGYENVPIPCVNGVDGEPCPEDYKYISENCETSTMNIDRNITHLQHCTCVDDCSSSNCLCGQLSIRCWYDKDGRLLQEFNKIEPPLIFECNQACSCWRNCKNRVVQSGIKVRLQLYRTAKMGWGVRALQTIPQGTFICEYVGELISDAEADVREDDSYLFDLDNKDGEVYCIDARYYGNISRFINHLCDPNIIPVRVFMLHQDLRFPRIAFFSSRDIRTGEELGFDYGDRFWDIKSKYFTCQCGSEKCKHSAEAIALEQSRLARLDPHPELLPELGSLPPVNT
The experiment in a line: HMT panel biochemical assay, G9a. Conditions: HMT selectivity panel.

Where [2] appears, read: ratio of WHSC1 941–1240 biochemical IC50 values.

Sequence of PRMT6 (Q96LA8 whole entry, species assumed): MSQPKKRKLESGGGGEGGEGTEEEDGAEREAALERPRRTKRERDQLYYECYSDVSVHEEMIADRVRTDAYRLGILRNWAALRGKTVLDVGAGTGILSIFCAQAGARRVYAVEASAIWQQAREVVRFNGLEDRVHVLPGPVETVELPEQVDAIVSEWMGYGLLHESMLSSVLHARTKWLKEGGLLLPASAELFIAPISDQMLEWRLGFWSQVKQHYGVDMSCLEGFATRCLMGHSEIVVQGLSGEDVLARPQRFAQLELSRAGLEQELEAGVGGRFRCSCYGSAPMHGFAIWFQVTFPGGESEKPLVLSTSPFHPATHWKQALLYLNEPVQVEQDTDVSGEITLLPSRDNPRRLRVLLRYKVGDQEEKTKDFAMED
Sequence of EZH1 (Q92800 whole entry, species assumed): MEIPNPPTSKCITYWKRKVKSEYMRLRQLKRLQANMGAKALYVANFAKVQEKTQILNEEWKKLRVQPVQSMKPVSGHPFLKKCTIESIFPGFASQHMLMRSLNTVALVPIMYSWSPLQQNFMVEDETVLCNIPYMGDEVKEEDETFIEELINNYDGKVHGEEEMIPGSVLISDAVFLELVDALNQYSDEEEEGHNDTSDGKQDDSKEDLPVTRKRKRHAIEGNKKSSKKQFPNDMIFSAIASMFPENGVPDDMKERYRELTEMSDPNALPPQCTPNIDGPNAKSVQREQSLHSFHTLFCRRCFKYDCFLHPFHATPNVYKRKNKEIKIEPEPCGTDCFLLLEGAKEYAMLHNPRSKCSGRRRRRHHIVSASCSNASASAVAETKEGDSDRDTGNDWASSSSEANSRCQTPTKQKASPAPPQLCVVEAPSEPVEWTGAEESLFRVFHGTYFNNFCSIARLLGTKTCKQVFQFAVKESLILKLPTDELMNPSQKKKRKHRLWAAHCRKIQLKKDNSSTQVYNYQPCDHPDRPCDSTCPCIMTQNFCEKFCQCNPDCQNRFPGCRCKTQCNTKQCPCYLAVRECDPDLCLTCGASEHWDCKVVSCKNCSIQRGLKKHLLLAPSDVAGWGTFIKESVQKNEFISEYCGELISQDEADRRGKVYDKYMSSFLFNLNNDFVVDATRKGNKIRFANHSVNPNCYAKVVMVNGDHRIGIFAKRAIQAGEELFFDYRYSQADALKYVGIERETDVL
Sequence of EZH1 (O75530 whole entry partner, species assumed): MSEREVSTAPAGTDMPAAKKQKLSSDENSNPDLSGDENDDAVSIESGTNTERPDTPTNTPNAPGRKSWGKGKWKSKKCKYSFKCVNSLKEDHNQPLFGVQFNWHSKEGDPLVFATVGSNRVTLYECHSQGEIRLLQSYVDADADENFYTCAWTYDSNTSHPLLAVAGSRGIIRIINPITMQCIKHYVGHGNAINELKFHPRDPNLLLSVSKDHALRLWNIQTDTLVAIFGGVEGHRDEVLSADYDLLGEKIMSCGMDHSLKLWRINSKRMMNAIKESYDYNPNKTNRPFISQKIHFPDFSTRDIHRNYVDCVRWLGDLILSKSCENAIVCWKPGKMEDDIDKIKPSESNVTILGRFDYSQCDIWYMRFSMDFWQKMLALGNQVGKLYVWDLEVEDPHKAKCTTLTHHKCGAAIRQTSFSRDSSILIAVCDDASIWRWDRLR
Sequence of EZH1 (Q15022 whole entry partner, species assumed): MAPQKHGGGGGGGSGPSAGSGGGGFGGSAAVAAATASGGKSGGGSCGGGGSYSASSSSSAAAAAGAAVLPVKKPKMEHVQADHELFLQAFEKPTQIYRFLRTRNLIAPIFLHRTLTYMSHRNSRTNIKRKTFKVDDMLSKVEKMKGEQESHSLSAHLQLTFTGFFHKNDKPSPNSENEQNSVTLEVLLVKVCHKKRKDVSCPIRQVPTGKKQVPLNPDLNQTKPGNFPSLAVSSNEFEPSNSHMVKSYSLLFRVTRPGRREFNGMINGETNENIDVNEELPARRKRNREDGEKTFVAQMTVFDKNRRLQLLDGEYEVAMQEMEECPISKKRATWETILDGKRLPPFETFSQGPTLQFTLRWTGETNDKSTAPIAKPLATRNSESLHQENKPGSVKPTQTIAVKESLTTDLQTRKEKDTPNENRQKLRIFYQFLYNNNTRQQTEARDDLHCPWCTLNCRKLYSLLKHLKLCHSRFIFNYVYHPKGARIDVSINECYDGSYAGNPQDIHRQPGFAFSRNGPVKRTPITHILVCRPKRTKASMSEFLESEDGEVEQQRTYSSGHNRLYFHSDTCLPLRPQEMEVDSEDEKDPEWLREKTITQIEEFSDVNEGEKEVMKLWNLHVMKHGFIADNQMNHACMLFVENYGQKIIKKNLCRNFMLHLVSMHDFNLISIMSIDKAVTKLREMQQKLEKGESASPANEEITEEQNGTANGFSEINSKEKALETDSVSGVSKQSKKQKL
Sequence of SMYD2 (Q9NRG4 whole entry, species assumed): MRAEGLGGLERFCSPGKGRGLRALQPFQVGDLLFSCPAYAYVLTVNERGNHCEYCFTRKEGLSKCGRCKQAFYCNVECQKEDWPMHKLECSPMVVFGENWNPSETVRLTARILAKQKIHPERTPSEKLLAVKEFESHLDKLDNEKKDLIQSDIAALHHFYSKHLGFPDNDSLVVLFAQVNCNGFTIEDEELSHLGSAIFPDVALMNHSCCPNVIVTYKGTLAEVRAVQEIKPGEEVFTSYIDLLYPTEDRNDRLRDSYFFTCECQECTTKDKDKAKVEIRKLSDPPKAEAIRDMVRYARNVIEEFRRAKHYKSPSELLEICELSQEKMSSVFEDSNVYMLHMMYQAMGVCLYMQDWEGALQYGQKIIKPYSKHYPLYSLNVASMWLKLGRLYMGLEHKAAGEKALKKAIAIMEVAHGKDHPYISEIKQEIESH
Sequence of EZH2 (Q15910 whole entry, species assumed): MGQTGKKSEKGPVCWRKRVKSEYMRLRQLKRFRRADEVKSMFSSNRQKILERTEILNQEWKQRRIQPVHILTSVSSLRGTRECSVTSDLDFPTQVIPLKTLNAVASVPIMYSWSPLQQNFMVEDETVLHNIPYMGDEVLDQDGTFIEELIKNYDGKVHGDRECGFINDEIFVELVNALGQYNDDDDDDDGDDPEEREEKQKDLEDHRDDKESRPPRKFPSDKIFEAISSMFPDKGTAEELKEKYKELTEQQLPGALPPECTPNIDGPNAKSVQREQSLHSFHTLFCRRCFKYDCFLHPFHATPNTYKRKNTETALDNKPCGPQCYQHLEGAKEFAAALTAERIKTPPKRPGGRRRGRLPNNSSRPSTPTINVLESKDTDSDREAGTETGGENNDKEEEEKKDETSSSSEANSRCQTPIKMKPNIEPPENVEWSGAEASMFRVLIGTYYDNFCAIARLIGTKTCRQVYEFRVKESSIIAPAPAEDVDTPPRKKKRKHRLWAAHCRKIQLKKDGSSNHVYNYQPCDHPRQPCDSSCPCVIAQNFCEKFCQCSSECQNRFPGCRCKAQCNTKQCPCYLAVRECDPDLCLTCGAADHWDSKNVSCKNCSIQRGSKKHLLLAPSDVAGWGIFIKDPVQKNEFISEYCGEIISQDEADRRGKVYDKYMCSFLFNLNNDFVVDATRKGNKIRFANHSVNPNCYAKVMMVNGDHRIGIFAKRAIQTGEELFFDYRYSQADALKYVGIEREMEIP
Sequence of EZH2 (O75530 whole entry partner, species assumed): as the sequence (O75530 whole entry partner, species assumed) above
Sequence of EZH2 (Q15022 whole entry partner, species assumed): as the sequence (Q15022 whole entry partner, species assumed) above

With `CCCC[C@H](NC(C)=O)C(=O)N[C@@H](CCCNC(=N)N)C(=O)N[C@H](C(=O)N[C@@H](CO)C(=O)NCC(N)=O)[C@@H](C)CC` [PTD7] (Ac-[Nle]RISG-NH2), the IC50 was 200 ± 40 µM against WHSC1 941–1240 and above 1000 µM against WHSC1L1 1054–1285.

In the case of `CCCC[C@H](NC(=O)[C@@H](NC(=O)CNC(=O)CNC(C)=O)C(C)C)C(=O)N[C@@H](CCCNC(=N)N)C(N)=O` [PTD4] (Ac-GGV[Nle]R-NH2), the IC50 came to 180 ± 20 µM at WHSC1 941–1240 and 320 ± 30 µM at WHSC1L1 1054–1285.

Turning to `CCCC[C@H](NC(=O)[C@@H](NC(=O)CNC(=O)CNC(=O)[C@@H](NC(=O)[C@H](C)NC(=O)[C@@H]1CCCN1C(=O)[C@H](C)NC(=O)[C@H](CO)NC(C)=O)[C@@H](C)O)C(C)C)C(=O)N[C@@H](CCCCN)C(=O)N1CCC[C@H]1C(=O)N[C@@H](Cc1c[nH]cn1)C(=O)N[C@@H](CCCNC(=N)N)C(=O)N[C@@H](Cc1ccc(O)cc1)C(=O)N[C@@H](CCCNC(=N)N)C(N)=O` [PTD8], the IC50 at WHSC1 941–1240 came out at 13 ± 1 µM; against WHSC1L1 1054–1285, 190 ± 30 µM. Further, the “fold loss in WHSC1 potency compared with PTD1” value on WHSC1 941–1240 (setting [2]) turned out to be 150 fold.

For `CCCC[C@H](NC(=O)[C@@H](NC(=O)CNC(C)=O)C(C)C)C(=O)N[C@@H](CCCNC(=N)N)C(=O)N[C@H](C(N)=O)[C@@H](C)CC` [PTD2], the IC50 on EZH2, on EZH1, against SETDB1, on SMYD2, against PRMT6 and against G9a was above 200 µM in each case. For the same compound, the “SPR binding in the absence of cofactor” value in assay [1] (no cofactor, 2-fold, 10-point dilution, top concentration 100 μM) is given as “no binding is observed”.

In the case of `CCCC[C@H](NC(=O)[C@@H](NC(=O)CNC(C)=O)C(C)C)C(=O)N[C@@H](CCCCN)C(=O)N1CCC[C@H]1C(N)=O` [PTD9] (Ac-GV[Nle]KP-NH2), the IC50 was 130 ± 20 µM against WHSC1 941–1240 and 370 ± 40 µM against WHSC1L1 1054–1285. The “fold decrease in WHSC1 potency relative to PTD2” value on WHSC1 941–1240 (setting [2]) worked out at 6 fold.

Regarding `CCCC[C@H](NC(=O)[C@@H](NC(C)=O)C(C)C)C(=O)N[C@@H](CCCNC(=N)N)C(=O)N[C@H](C(=O)N[C@@H](CO)C(N)=O)[C@@H](C)CC` [PTD6] (Ac-V[Nle]RIS-NH2), the values for the IC50 against WHSC1 941–1240 and on WHSC1L1 1054–1285 were 110 ± 20 µM and 3 ± 0.3 µM, respectively.

`CCCC[C@H](NC(=O)[C@@H](NC(=O)CNC(=O)CNC(=O)[C@H](CCCNC(=N)N)NC(C)=O)C(C)C)C(N)=O` [PTD5] (Ac-RGGV[Nle]-NH2): the IC50 against WHSC1 941–1240 came out at 190 ± 20 µM; on WHSC1L1 1054–1285, 110 ± 10 µM.

Take `CCCC[C@H](NC(=O)[C@@H](NC(=O)CNC(=O)CNC(=O)[C@H](CCCNC(=N)N)NC(=O)[C@H](CCCNC(=N)N)NC(=O)[C@H](C)NC(=O)[C@H](CC(C)C)NC(=O)[C@H](CCCNC(=N)N)NC(C)=O)C(C)C)C(=O)N[C@@H](CCCNC(=N)N)C(=O)N[C@H](C(=O)N[C@@H](CO)C(=O)NCC(=O)N[C@@H](CC(C)C)C(=O)N[C@H](C(N)=O)[C@@H](C)CC)[C@@H](C)CC` [PTD1] (Ac-RLARRGGV[Nle]RISGLI-NH2): the IC50 against WHSC1 941–1240 came out at 0.088 ± 0.005 µM; at WHSC1L1 1054–1285, 1.1 ± 0.1 µM. For the same compound, the “fold more potent towards WHSC1 than the 5 residue Nle peptide (PTD2)” value at WHSC1 941–1240 (setting [2]) was determined as 250 fold. For the same compound, in assay [1] (at concentrations greater than 1 μM, affinity to WHSC1 could not be determined), the “SPR behaviour on the sensor surface” value is recorded as “non-specific matrix interactions”.

On to Ac-GVARI-NH2 [PTD3], for which the IC50 at WHSC1 941–1240 is 640 ± 70 µM; against WHSC1L1 1054–1285, above 1000 µM. In addition, the “fold decrease in WHSC1 potency relative to PTD2” value at WHSC1 941–1240 (setting [2]) turned out to be 30 fold.

For the origin of these results see publication PMC5942779, “Identification of a peptide inhibitor for the histone methyltransferase WHSC1” (PLoS ONE, 2018).
